According to PMC12525728, “Safety, Pharmacokinetics, Translational and Molecular Mechanistic Insights on the Prostate Cancer Recurrence Suppressor Pseurotin A” (Molecules, 2025):

Tested on: Swiss albino mice
Test: Hematological and biochemical evaluation after 90-day daily oral dosing
Assay type: in vivo
Conditions: for HCT / HGB / MCHC / MCV / PLT / RBC-H / WBC-H: mean ± SD; for ALP, plasma / ALT, plasma / AST, plasma / BUN, plasma / CREAT (creatinine), plasma / GLU (glucose), plasma: mean ± SEM
Procedure: For the 90-day daily oral dosing sub-chronic toxicity study, twenty male and twenty female healthy 8-week-old Swiss albino mice were randomly selected and randomized to […] (n = 5/sex/group). Mice received free access to purified drinking water and high-fat diet (HFD) pelleted rodent chow (11.4% total fat, no. 7004, Envigo/Teklad, Madison, WI, USA) until the day before sacrifice, at which time they were fasted for 8 h and allowed only free access to drinking water. Daily doses of PsA (10, 40, 80 mg/kg body weight) were administered to the mice formulated in <5% DMSO (Mediatech Inc., Manassas, VA, USA) and <0.2% Tween 80 (Croda Inc., Princeton, NJ, USA) at a volume not exceeding 1% of body weight by metal oral gavage (2 mm diameter with stainless steel bite protector, 18-gauge, 3.81 cm long). […] The mice were observed weekly until the completion of the study. The body weights of the mice were measured in grams using a Scout^TM Pro (Ohaus Corp., Pine Brook, NJ, USA) on day 0, 4, 8, 11, 14, 21, 28, 35, 42, 49, 56, 63, 70, 77, 83, and 90 after initial treatment. On day 90, all mice were anesthetized using isoflurane (USP-vaporizer method, Matrix VIP-3000, Covetrus, Dublin, OH, USA, exposure of animals in an anesthesia chamber at 3% isoflurane vaporization rate. Exposure time 2 min). Mice were then euthanized by cervical dislocation according to the 2020 AVMA Guidelines on Euthanasia and dissected. Mice organs (brain, liver, kidney, heart, lungs, spleen) were excised and weighed for histopathological examination. The organs were stored in 10% neutral buffered formalin (Avantor Science Central, Allentown, PA, USA) for 24 h and then transferred to 70% ethanol (AAPER ALCOHOL, Shelbyville, KY, USA). This study was performed following the OECD guideline 408 for the testing of chemicals.
On the day of sacrifice, mice were decapitated, and the blood was quickly collected into a green-topped Lithium Heparin 400 µL blood collection tube (BD Microtainer REF# 365965) as well as a purple-topped K2 EDTA (K2E) 500 µL blood collection tube (BD Microtainer, Cat# 365974) to ensure all blood samples were collected free of clots. The Li Heparin samples were immediately centrifuged at 13,000× g for 10 min, and the plasma was transferred to 1.5 mL Eppendorf tubes free of Li heparin for biochemical analysis. Plasma samples were analyzed for AST, ALT, ALP, glucose, BUN, and creatinine levels using the Beckman AU680 clinical chemistry analyzer system (Beckman Coulter, Atlanta, GA, USA). The ETDA samples were analyzed for hematological parameters, and WBC, RBC, Hgb, Hct, MCV, MCHC, and PLT were determined using the Siemens Advia 120 hematology analyzer (Siemens Healthcare Diagnostics Inc., Tarrytown, NY, USA). All blood samples were analyzed at the LSU School of Veterinary Medicine Clinical Pathology Laboratory at Baton Rouge, Louisiana.
Results for the hematological and biochemical parameters were analyzed separately by One-way Analysis of Variance (ANOVA), followed by multiple comparisons with Dunnett’s test. All statistical analyses were performed using GraphPad Prism version 8 software (San Diego, CA, USA). Data in this study were expressed as a mean ± SD (standard deviation) and mean ± SEM (standard error of mean). A probability value of <0.05 was considered statistically significant (* p < 0.05; ** p < 0.01; and *** p < 0.001).

[1] = female, 10mg/kg daily oral 90 days
[2] = female, 40mg/kg daily oral 90 days
[3] = female, 80mg/kg daily oral 90 days
[4] = male and female treatment groups, 90 days
[5] = male, 10mg/kg daily oral 90 days
[6] = male, 40mg/kg daily oral 90 days
[7] = male, 80mg/kg daily oral 90 days

## CC/C=C\[C@H](O)[C@H](O)C1=C(C)C(=O)[C@]2(O1)C(=O)N[C@@](OC)(C(=O)c1ccccc1)[C@@H]2O [PsA, pseurotin A]
All male dosing groups, 90 days
  AST level versus control: significantly lower
Female treatment groups, 90 days
  AST level versus control: significant reduction
[1]
  HCT: 48.5 ± 6.0%
  HGB: 12.5 ± 0.3 g/dL
  MCHC: 26.2 ± 3.0 g/dL
  MCV: 52.1 ± 5.0 fL
  PLT: 459.0 ± 99.1 103/μL
  RBC-H: 9.3 ± 0.3 106/μL
  WBC-H: 6.5 ± 0.6 103/μL
  ALP, plasma: 78.0 ± 3.8 U/L
  ALT, plasma: 34.3 ± 1.9 U/L
  AST, plasma: 61.7 ± 6.4 U/L
  BUN, plasma: 22.0 ± 0.6 mg/dL
  CREAT (creatinine), plasma: 0.2 ± 0.0 mg/dL
  GLU (glucose), plasma: 291.7 ± 6.5 mg/dL
[2]
  ALP, plasma: 68.0 ± 3.8 U/L
  ALT, plasma: 34.5 ± 1.9 U/L
  AST, plasma: 67.8 ± 7.1 U/L
  BUN, plasma: 17.5 ± 0.4 mg/dL
  CREAT (creatinine), plasma: < 0.2 ± 0.0 mg/dL
  GLU (glucose), plasma: 259.0 ± 5.7 mg/dL
[3]
  ALP, plasma: 86.8 ± 13.4 U/L
  ALT, plasma: 30.3 ± 3.4 U/L
  AST, plasma: 81.3 ± 17.8 U/L
  BUN, plasma: 18.5 ± 2.1 mg/dL
  CREAT (creatinine), plasma: 0.2 ± 0.0 mg/dL
  GLU (glucose), plasma: 235.3 ± 19.4 mg/dL
female, all three treatment groups, 90 days
  plasma ALT level versus control: significantly lower
Male 10 mg/kg, female 40 mg/kg and female 80 mg/kg groups, 90 days
  BUN level versus control: significantly lower
Male 40 mg/kg group, 90 days
  MCV versus control: significantly higher
[4]
  ALP and plasma glucose levels: no significant changes
  CREAT levels: no significant change
Male up to 80 mg/kg, female 10 mg/kg, 90 days
  WBC-H, RBC-H, HGB, HCT, MCHC, PLT versus control: did not show any significant changes
[5]
  HCT: 41.0 ± 3.0%
  HGB: 11.8 ± 0.4 g/dL
  MCHC: 28.8 ± 2.5 g/dL
  MCV: 49.6 ± 2.5 fL
  PLT: 555.0 ± 147.7 103/μL
  RBC-H: 8.3 ± 0.6 106/μL
  WBC-H: 4.5 ± 1.0 103/μL
  ALP, plasma: 71.8 ± 4.7 U/L
  ALT, plasma: 28.3 ± 1.7 U/L
  AST, plasma: 57.8 ± 12.8 U/L
  BUN, plasma: 18.3 ± 0.7 mg/dL
  CREAT (creatinine), plasma: 0.2 ± 0.0 mg/dL
  GLU (glucose), plasma: 263.8 ± 9.9 mg/dL
[6]
  HCT: 47.4 ± 4.3%
  HGB: 11.9 ± 0.9 g/dL
  MCHC: 25.1 ± 3.3 g/dL
  MCV: 55.4 ± 4.8 fL
  PLT: 413.0 ± 111.2 103/μL
  RBC-H: 8.6 ± 0.8 106/μL
  WBC-H: 5.0 ± 1.8 103/μL
  ALP, plasma: 78.3 ± 5.2 U/L
  ALT, plasma: 28.5 ± 2.5 U/L
  AST, plasma: 42.8 ± 1.9 U/L
  BUN, plasma: 20.5 ± 0.8 mg/dL
  CREAT (creatinine), plasma: 0.2 ± 0.0 mg/dL
  GLU (glucose), plasma: 248.5 ± 12.0 mg/dL
[7]
  HCT: 47.8 ± 4.9%
  HGB: 12.5 ± 0.3 g/dL
  MCHC: 26.3 ± 2.2 g/dL
  MCV: 53.3 ± 5.1 fL
  PLT: 580.3 ± 119.8 103/μL
  RBC-H: 9.0 ± 0.1 106/μL
  WBC-H: 7.9 ± 1.4 103/μL
  ALP, plasma: 63.0 ± 3.4 U/L
  ALT, plasma: 48.0 ± 4.8 U/L
  AST, plasma: 48.5 ± 4.50 U/L
  BUN, plasma: 20.3 ± 0.2 mg/dL
  CREAT (creatinine), plasma: 0.2 ± 0.0 mg/dL
  GLU (glucose), plasma: 272.3 ± 15.4 mg/dL
Treated males, 90 days
  ALT level versus control: did not show a significant change
